Data published in PubChem BioAssay AID1259407 (Chemical Carcinogenesis Research Information System (CCRIS), 2018).
Calls of active or inactive are those of the source. How the calls were made is not given here.

Test system: CCRIS mutagenicity, Ames/micronucleus/aberration tests
Test: CCRIS mutagenicity studies
[1] = Test System: AMES SALMONELLA TYPHIMURIUM, Strain/Indicator: TA100, Metabolic Activation: RAT, LIVER, S-9, AROCLOR 1254, Method: STANDARD PLATE
[2] = Test System: AMES SALMONELLA TYPHIMURIUM, Strain/Indicator: TA97, Metabolic Activation: HAMSTER, LIVER, S-9, AROCLOR 1254 (10%), Method: PREINCUBATION
[3] = Test System: AMES SALMONELLA TYPHIMURIUM, Strain/Indicator: TA97, Metabolic Activation: NONE, Method: PREINCUBATION
[4] = Test System: AMES SALMONELLA TYPHIMURIUM, Strain/Indicator: TA97, Metabolic Activation: RAT, LIVER, S-9, AROCLOR 1254 (10%), Method: PREINCUBATION
[5] = Test System: AMES SALMONELLA TYPHIMURIUM, Strain/Indicator: TA98, Metabolic Activation: HAMSTER, LIVER, S-9, AROCLOR 1254 (10%), Method: PREINCUBATION
[6] = Test System: AMES SALMONELLA TYPHIMURIUM, Strain/Indicator: TA98, Metabolic Activation: NONE, Method: PREINCUBATION
[7] = Test System: AMES SALMONELLA TYPHIMURIUM, Strain/Indicator: TA98, Metabolic Activation: RAT, LIVER, S-9, AROCLOR 1254 (10%), Method: PREINCUBATION
[8] = Test System: AMES SALMONELLA TYPHIMURIUM, Strain/Indicator: TA100, Metabolic Activation: NONE, Method: PREINCUBATION
[9] = Test System: AMES SALMONELLA TYPHIMURIUM, Strain/Indicator: TA100, Metabolic Activation: RAT, LIVER, S-9, AROCLOR 1254 (10%), Method: PREINCUBATION
[10] = Test System: AMES SALMONELLA TYPHIMURIUM, Strain/Indicator: TA1535, Metabolic Activation: NONE, Method: PREINCUBATION
[11] = Test System: AMES SALMONELLA TYPHIMURIUM, Strain/Indicator: TA1537, Metabolic Activation: NONE, Method: PREINCUBATION
[12] = Test System: AMES SALMONELLA TYPHIMURIUM, Strain/Indicator: TA98, Metabolic Activation: NONE, Method: STANDARD PLATE
[13] = Test System: AMES SALMONELLA TYPHIMURIUM, Strain/Indicator: TA100, Metabolic Activation: NONE, Method: STANDARD PLATE

Measured: mutagenic call

CCc1c2ccccc2c(C)c2ccc3ccccc3c12
inactive: Test System: AMES SALMONELLA TYPHIMURIUM, Strain/Indicator: TA98, Method: STANDARD PLATE inactive; negative | Test System: AMES SALMONELLA TYPHIMURIUM, Strain/Indicator: TA100, Metabolic Activation: RAT, LIVER, S-9, PHENOBARBITAL, Method: STANDARD PLATE inactive; negative | Test System: AMES SALMONELLA TYPHIMURIUM, Strain/Indicator: TA100, Method: STANDARD PLATE inactive; negative

OCc1ccc2nc3c(ccc4ccccc43)c(CO)c2c1
active: [1] active; positive

OCCCBr
active: Test System: AMES SALMONELLA TYPHIMURIUM, Strain/Indicator: TA100, Metabolic Activation: HAMSTER, LIVER, S-9, AROCLOR 1254 (10%), Method: PREINCUBATION active; positive | [8] active; positive | [9] active; positive | Test System: AMES SALMONELLA TYPHIMURIUM, Strain/Indicator: TA1535, Metabolic Activation: HAMSTER, LIVER, S-9, AROCLOR 1254 (10%), Method: PREINCUBATION active; positive | [10] active; positive | Test System: AMES SALMONELLA TYPHIMURIUM, Strain/Indicator: TA1535, Metabolic Activation: RAT, LIVER, S-9, AROCLOR 1254 (10%), Method: PREINCUBATION active; positive
inactive: [2] inactive; negative | [3] inactive; negative | [4] inactive; negative | [5] inactive; negative | [6] inactive; negative | [7] inactive; negative

NC(=O)CCCCC(N)=O
inactive: Test System: AMES SALMONELLA TYPHIMURIUM, Strain/Indicator: TA98, Metabolic Activation: HAMSTER, LIVER, S-9, AROCLOR 1254, Method: PREINCUBATION inactive; negative | [6] inactive; negative | Test System: AMES SALMONELLA TYPHIMURIUM, Strain/Indicator: TA98, Metabolic Activation: RAT, LIVER, S-9, AROCLOR 1254, Method: PREINCUBATION inactive; negative | Test System: AMES SALMONELLA TYPHIMURIUM, Strain/Indicator: TA100, Metabolic Activation: HAMSTER, LIVER, S-9, AROCLOR 1254, Method: PREINCUBATION inactive; negative | [8] inactive; negative | Test System: AMES SALMONELLA TYPHIMURIUM, Strain/Indicator: TA100, Metabolic Activation: RAT, LIVER, S-9, AROCLOR 1254, Method: PREINCUBATION inactive; negative | Test System: AMES SALMONELLA TYPHIMURIUM, Strain/Indicator: TA1535, Metabolic Activation: HAMSTER, LIVER, S-9, AROCLOR 1254, Method: PREINCUBATION inactive; negative | [10] inactive; negative | Test System: AMES SALMONELLA TYPHIMURIUM, Strain/Indicator: TA1535, Metabolic Activation: RAT, LIVER, S-9, AROCLOR 1254, Method: PREINCUBATION inactive; negative | Test System: AMES SALMONELLA TYPHIMURIUM, Strain/Indicator: TA1537, Metabolic Activation: HAMSTER, LIVER, S-9, AROCLOR 1254, Method: PREINCUBATION inactive; negative | [11] inactive; negative | Test System: AMES SALMONELLA TYPHIMURIUM, Strain/Indicator: TA1537, Metabolic Activation: RAT, LIVER, S-9, AROCLOR 1254, Method: PREINCUBATION inactive; negative

Cc1cc2ncccc2c2nc(N=[N+]=[N-])n(C)c12
active: Test System: AMES SALMONELLA TYPHIMURIUM, Strain/Indicator: TA98(1,8-DNP6), Metabolic Activation: NONE, Method: STANDARD PLATE active; positive | [12] active; positive

CC(C)(Br)C(Br)CCl (stereo not drawn)
inactive: Test System: AMES SALMONELLA TYPHIMURIUM, Strain/Indicator: TA100, Metabolic Activation: RAT, LIVER, MICROSOMES, PHENOBARBITAL, Method: PREINCUBATION inactive; negative | Test System: AMES SALMONELLA TYPHIMURIUM, Strain/Indicator: TA100, Metabolic Activation: RAT, LIVER, MICROSOMES, Method: PREINCUBATION inactive; negative

[N-]=[N+]=NC[C@H]1O[C@H](O)[C@@H](O)[C@H](O)[C@@H]1O
inactive: [12] inactive; negative
active: [13] active; positive

Cc1cc(C)cc(C)c1
inactive: Test System: AMES SALMONELLA TYPHIMURIUM, Strain/Indicator: TA97A, Metabolic Activation: NONE, Method: STANDARD PLATE inactive; negative | Test System: AMES SALMONELLA TYPHIMURIUM, Strain/Indicator: TA97A, Metabolic Activation: RAT, LIVER, S-9, AROCLOR 1254, Method: STANDARD PLATE inactive; negative | [12] inactive; negative | Test System: AMES SALMONELLA TYPHIMURIUM, Strain/Indicator: TA98, Metabolic Activation: RAT, LIVER, S-9, AROCLOR 1254, Method: STANDARD PLATE inactive; negative | [13] inactive; negative | [1] inactive; negative | Test System: AMES SALMONELLA TYPHIMURIUM, Strain/Indicator: TA102, Metabolic Activation: NONE, Method: STANDARD PLATE inactive; negative | Test System: AMES SALMONELLA TYPHIMURIUM, Strain/Indicator: TA102, Metabolic Activation: RAT, LIVER, S-9, AROCLOR 1254, Method: STANDARD PLATE inactive; negative

c1ccc2nc3c(cc2c1)-c1cccc2cccc-3c12
inactive: [12] inactive; negative | Test System: AMES SALMONELLA TYPHIMURIUM, Strain/Indicator: TA98, Metabolic Activation: RAT, LIVER, S-9, Method: STANDARD PLATE inactive; negative | [13] inactive; negative | Test System: AMES SALMONELLA TYPHIMURIUM, Strain/Indicator: TA100, Metabolic Activation: RAT, LIVER, S-9, Method: STANDARD PLATE inactive; negative

C1CCC(NC2CCCCC2)CC1
inactive: [2] inactive; negative | [3] inactive; negative | [4] inactive; negative | [5] inactive; negative | [6] inactive; negative | Test System: AMES SALMONELLA TYPHIMURIUM, Strain/Indicator: TA98, Metabolic Activation: RAT LIVER S-9, PHENOBARBITAL AND BETA-NAPHTHOFLAVONE, Method: PREINCUBATION inactive; negative | [7] inactive; negative | [8] inactive; negative | Test System: AMES SALMONELLA TYPHIMURIUM, Strain/Indicator: TA100, Metabolic Activation: RAT LIVER S-9, PHENOBARBITAL AND BETA-NAPHTHOFLAVONE, Method: PREINCUBATION inactive; negative | [9] inactive; negative | Test System: AMES SALMONELLA TYPHIMURIUM, Strain/Indicator: TA1535, Metabolic Activation: RAT LIVER S-9, PHENOBARBITAL AND BETA-NAPHTHOFLAVONE, Method: PREINCUBATION inactive; negative | Test System: AMES SALMONELLA TYPHIMURIUM, Strain/Indicator: TA1537, Metabolic Activation: HAMSTER, LIVER, S-9, AROCLOR 1254 (10%), Method: PREINCUBATION inactive; negative | [11] inactive; negative | Test System: AMES SALMONELLA TYPHIMURIUM, Strain/Indicator: TA1537, Metabolic Activation: RAT LIVER S-9, PHENOBARBITAL AND BETA-NAPHTHOFLAVONE, Method: PREINCUBATION inactive; negative | Test System: AMES SALMONELLA TYPHIMURIUM, Strain/Indicator: TA1537, Metabolic Activation: RAT, LIVER, S-9, AROCLOR 1254 (10%), Method: PREINCUBATION inactive; negative | Test System: E.COLI, Strain/Indicator: WP2UVRA/PKM101, Metabolic Activation: NONE, Method: PREINCUBATION inactive; negative | Test System: E.COLI, Strain/Indicator: WP2UVRA/PKM101, Metabolic Activation: RAT LIVER S-9, PHENOBARBITAL AND BETA-NAPHTHOFLAVONE, Method: PREINCUBATION inactive; negative
